Reference: patent US20220226269A1, “METHODS AND COMPOSITIONS FOR MODULATION OF AN INTERSPECIES GUT BACTERIAL PATHWAY FOR LEVODOPA METABOLISM” (President and Fellows of Harvard College, priority 2019, published 2022)
In brackets after ≈: the same amount, converted by molar mass. Several values for one entry are separate records, joined by “and”; a condition that tells them apart may be missing. Equal values may be shown once. Entries after “also recorded” stand apart in the source; their conditions may differ.

How the values were obtained:
[1] = tested on: co-cultures of E. faecalis and E. lenta; assay: L-dopa metabolism by co-cultures of E. faecalis and E. lenta with AFMT; settings: 125 μM AFMT, 1 mM d3-phenyl-L-dopa, 48 hours
Method: E. faecalis MMH594 WT or tyrDC mutant or E. lenta A2 or E. lenta DSM2243 were grown anaerobically for 48 hours from single colonies in BHI medium at 37° C. These starter cultures were normalized to an OD600=0.1 by dilution into fresh BHI medium. […] Cultures were grown for 48 hours at 37° C. and harvested by centrifugation.

[2] = Pharmacokinetic experiment in gnotobiotic mice colonized with E. faecalis MMH594; format: in vivo; settings: L-dopa+carbidopa+AFMT
TyrDC = target: T1, TyrDC (Enterococcus faecalis, UniProt P0DTQ4); assay: Identification of a PLP-inhibitor adduct upon incubation of enzymes with AFMT; format: biochemical; settings: TyrDC or AADC incubated with AFMT for 1 hour
T1 sequence (P0DTQ4 1-620): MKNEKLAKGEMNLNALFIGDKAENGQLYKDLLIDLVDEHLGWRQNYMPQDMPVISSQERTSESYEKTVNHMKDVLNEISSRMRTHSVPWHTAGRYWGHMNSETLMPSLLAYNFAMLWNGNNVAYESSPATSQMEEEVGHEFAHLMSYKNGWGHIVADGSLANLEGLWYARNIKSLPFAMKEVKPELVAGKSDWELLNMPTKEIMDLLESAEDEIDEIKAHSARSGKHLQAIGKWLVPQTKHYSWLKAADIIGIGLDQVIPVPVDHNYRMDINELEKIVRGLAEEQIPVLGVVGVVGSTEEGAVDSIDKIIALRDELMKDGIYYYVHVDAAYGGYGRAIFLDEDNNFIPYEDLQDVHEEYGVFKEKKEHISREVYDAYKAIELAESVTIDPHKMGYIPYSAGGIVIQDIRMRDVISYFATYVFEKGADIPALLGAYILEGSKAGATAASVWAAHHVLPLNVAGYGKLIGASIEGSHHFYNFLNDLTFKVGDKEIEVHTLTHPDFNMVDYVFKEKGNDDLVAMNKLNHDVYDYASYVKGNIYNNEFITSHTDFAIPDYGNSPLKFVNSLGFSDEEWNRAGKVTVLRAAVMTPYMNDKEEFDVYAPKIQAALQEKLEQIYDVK
Method: The same buffers as described above were used for each enzyme. 10 μM AADC or TyrDC was incubated with 200 μM PLP and 50 μM AFMT for one hour at room temperature. The reactions were quenched by boiling at 95° C. for 15 minutes. This mix was diluted 1:20 in LC-MS grade methanol and spun down to pellet precipitates. The supernatant was analyzed by LC-MS using Method E described above. The predicted adduct was identified based on the work described in.

[3] = Solubility limit noted in the inhibition assays; format: physicochemical
H. sapiens AADC = target: T2, H. sapiens AADC (Homo sapiens, UniProt P20711); assay: Inhibition of L-dopa decarboxylation by purified AADC (LC-MS/MS)
T2 sequence (P20711 1-480): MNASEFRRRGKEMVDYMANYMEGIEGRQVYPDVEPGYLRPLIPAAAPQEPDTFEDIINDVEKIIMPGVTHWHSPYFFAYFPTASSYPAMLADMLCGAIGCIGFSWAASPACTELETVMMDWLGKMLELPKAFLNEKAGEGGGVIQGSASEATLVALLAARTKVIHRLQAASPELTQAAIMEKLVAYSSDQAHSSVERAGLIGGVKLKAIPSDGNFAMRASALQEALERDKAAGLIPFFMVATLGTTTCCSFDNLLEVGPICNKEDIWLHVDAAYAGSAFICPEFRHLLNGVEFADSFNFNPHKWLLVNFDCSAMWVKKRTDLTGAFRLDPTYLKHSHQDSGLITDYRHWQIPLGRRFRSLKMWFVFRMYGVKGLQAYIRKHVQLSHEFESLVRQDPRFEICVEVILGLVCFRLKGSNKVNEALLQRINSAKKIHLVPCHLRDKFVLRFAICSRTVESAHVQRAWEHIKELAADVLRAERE

HeLa cells = assay: MTS/MTT assay for HeLa cell viability in the presence of AFMT; format: cell-based; settings: two days treatment
Method: HeLa cells were seeded in 100 μL growth medium [(DMEM medium supplemented with 10% FBS (2 mL) and 1× Antibiotic-Antimycotic (100× stock, Invitrogen))] and incubated at 37° C. in 5% CO2 incubator for 1 day. Wells containing growth medium only were used as background controls. Cells were treated with various concentrations of AFMT in quadruplicate. Two days post treatment, 20 μL of CellTiter 96® AQueous One Solution Reagent (Promega) was added to each well. The plates were incubated at 37° C. in 5% CO2 incubator for 2 hours followed by absorbance measurement at 490 nm. To calculate relative cell viability, the readings for each compound concentration were subtracted from the background controls and normalized to vehicle controls.
HeLa cells were seeded into 96-well plates at a density of 1×10^5 cells per well in 100 μL of growth medium [(DMEM medium supplemented with 10% FBS (2 mL) and 1× Antibiotic-Antimycotic (100× stock, Invitrogen))] and incubated at 37° C. in a 5% CO2 incubator for 1 day. Wells containing growth medium only were used as background controls. Cells were treated with various concentrations of AFMT in quadruplicate. […] To calculate relative cell viability, the readings for each compound concentration were subtracted from the background controls and normalized to vehicle controls

E. faecalis TyrDC [4] = target: T3, E. faecalis TyrDC (Enterococcus faecalis, UniProt P0DTQ4); assay: Inhibition of L-dopa decarboxylation by purified TyrDC (LC-MS/MS); settings: for preferential inhibition, AADC vs TyrDC: FIG. 4 panels B and E, in vitro; for IC50: IC50, L-dopa decarboxylation by TyrDC, purified E. faecalis TyrDC, 500 μM L-dopa, pH 5.5, best-fit ± standard error, n=3
T3 sequence (P0DTQ4 1-620): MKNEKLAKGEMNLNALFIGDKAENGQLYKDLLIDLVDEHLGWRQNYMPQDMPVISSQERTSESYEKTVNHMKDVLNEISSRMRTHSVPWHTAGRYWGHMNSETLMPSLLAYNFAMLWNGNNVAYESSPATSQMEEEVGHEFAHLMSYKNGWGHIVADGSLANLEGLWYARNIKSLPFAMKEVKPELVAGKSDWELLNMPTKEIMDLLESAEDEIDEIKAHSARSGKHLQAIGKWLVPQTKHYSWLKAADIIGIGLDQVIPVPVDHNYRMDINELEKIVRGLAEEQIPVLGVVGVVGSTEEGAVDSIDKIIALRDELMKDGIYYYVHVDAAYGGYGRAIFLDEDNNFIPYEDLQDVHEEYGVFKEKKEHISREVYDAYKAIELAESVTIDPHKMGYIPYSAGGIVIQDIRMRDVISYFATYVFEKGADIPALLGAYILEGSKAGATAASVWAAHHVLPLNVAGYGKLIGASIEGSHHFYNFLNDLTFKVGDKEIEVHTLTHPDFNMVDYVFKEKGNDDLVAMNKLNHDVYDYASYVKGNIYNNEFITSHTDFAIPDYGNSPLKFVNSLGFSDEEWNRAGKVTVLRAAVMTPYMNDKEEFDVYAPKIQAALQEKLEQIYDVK

E. faecalis MMH594 cells = assay: L-dopa decarboxylation in anaerobic E. faecalis cultures with inhibitor
human fecal microbiota = tested on: human fecal microbiota
Method: Fecal slurries from neurologically healthy human donors or Parkinson's patients were prepared as described in the ‘enrichment culturing’ section above. These slurries were diluted to a final volume of 300 μL in 20% glycerol and then aliquoted into individual tubes, flash-frozen in liquid nitrogen and stored at −80° C., allowing for experiments to be repeated with the same fecal sample multiple times without freeze-thawing.

E. faecalis TyrDC [5] = target: T3, E. faecalis TyrDC; assay: Michaelis-Menten kinetics of E. faecalis TyrDC; settings: for Vmax / kcat: substrate of TyrDC, best-fit ± standard error, n=3
Method: (§1) The enzyme reaction was then initiated by dissolving the preincubated enzyme-PLP mix 1:10 with substrate dissolved in 0.2 M sodium acetate buffer, pH 5.5. […] Aliquots of the enzyme reaction were quenched by diluting 10-fold into ice cold methanol at 20, 40, and 60 seconds after initiation. The quenched reaction was centrifuged to pellet precipitates and 5 μL of the supernatant was analyzed by LC-MS/MS using Method B described above. Rates were calculated as the substrate produced from 20 to 60 seconds and were fit to a standard Michaelis-Menten kinetics curve in Graphpad prism (version 7). All experiments were done in triplicate and were repeated at least twice. Reactions were performed at room temperature.

[6] = cited from earlier work
E. lenta A2 cell lysates = assay: E. lenta A2 lysate assays with tungstate; format: biochemical, Eggerthella lenta; settings: 500 μM dopamine, 12 hours, room temperature
Method: E. lenta A2 was grown either without or with 500 μM dopamine in BHI medium containing 1% (w/v) arginine and 10 mM formate. Cultures were spun down at OD600=0.500 and cell pellets were washed twice with anaerobic, sterile PBS to remove dopamine and any m-tyramine that had accumulated in the culture. Pellets were lysed anaerobically in 50 mM Tris pH 8 followed by addition of 500 μM dopamine (DA) to lysates. Lysates were left at room temperature for 12 hours and were analyzed for m-tyramine production by LC-MS/MS. Peak heights show the relative intensity of each mass and all chromatograms are shown on the same scale.
10 mL turbid 48-hour starter cultures of E. lenta A2 in BHI medium were diluted 1:100 into 20 mL BHI medium containing 1% arginine and 10 mM formate with or without 500 μM dopamine. Cells were pelleted by centrifugation when cultures reached OD600=0.500. Cell pellets were washed twice with PBS and were then re-suspended in 800 μL 50 mM Tris pH 8 containing 4 mg/mL […] protease inhibitor cocktail, followed by anaerobic sonication to lyse the cells. Dopamine was added to crude lysates at a final concentration of 500 μM and the reactions were left for 12 hours at room temperature under anaerobic conditions. […] Supernatant were analyzed by LC-MS/MS to measure dopamine and m-tyramine production using Method A described above. […]

E. lenta A2 [7] = assay: Effect of tungstate on dopamine dehydroxylation in cultures of E. lenta A2; format: cell-based, Eggerthella lenta; settings: 48 hours, 0.5 mM dopamine
E. lenta A2 [8] = assay: Anaerobic growth of E. lenta A2 in the presence of tungstate; format: cell-based, Eggerthella lenta; settings: BHI medium, varying concentrations of tungstate
[9] = substrate: N[C@@H](Cc1ccc(O)c(O)c1)C(=O)O; assay: purified protein, by the assay type; settings: other: substrate of TyrDC, pH 5.5
[10] = substrate: N[C@@H](Cc1ccc(O)cc1)C(=O)O; assay: purified protein, by the assay type; settings: other: substrate of TyrDC; best-fit ± standard error, n=3; pH 5.5
Method: as §1

[11] = read-out: inhibition of AADC at solubility limit

Molecule: N[C@@](CF)(Cc1ccc(O)cc1)C(=O)O [AFMT]
- L-dopa decarboxylation by co-cultures of E. faecalis and E. lenta [1]: reduced
- serum L-dopa relative to vehicle controls [2]: higher
- covalent PLP adduct formation (TyrDC): formed a covalent PLP adduct only in the presence of TyrDC
- solubility ([3]; AADC inhibition assay mixture, AADC inhibition assay): 650 µM (≈ 139 µg/mL)
- inhibition at 650 µM (H. sapiens AADC; [11]): ~20%
- inhibition at 700 µM (H. sapiens AADC; [11]): 20%
- toxicity to eukaryotic cells (HeLa cells): non-toxic
- preferential inhibition, AADC vs TyrDC (E. faecalis TyrDC [4]): preferentially inhibits TyrDC over AADC
- IC50 (E. faecalis TyrDC [4]): 4.7 µM and 4.71 µM
- fold outperforming carbidopa in E. faecalis cultures (E. faecalis MMH594 cells; AFMT vs carbidopa): 1000 fold
- EC50 (E. faecalis MMH594 cells; Enterococcus faecalis, MMH594CELLS, read-out: EC50, L-dopa decarboxylation in E. faecalis cultures, E. faecalis MMH594 cells, 0.5 mM L-dopa, anaerobic): 1.4 µM
- L-dopa decarboxylation in gut microbiota samples (human fecal microbiota; Parkinson's disease patients and neurologically healthy control subjects, 1 mM d3-phenyl-L-dopa, 72 hours): completely inhibited

Molecule: N[C@@H](Cc1ccc(O)c(O)c1)C(=O)O [L-dopa]
- Vmax (E. faecalis TyrDC [5]): 5.553 ± 0.165 ^ μM/s
- kcat (E. faecalis TyrDC [5]): 55.53 ± 2.98 ^ 1/s
- L-dopa reaching the brain ([6]; extensive pre-systemic metabolism in the gut): 1-5%

Molecule: N[C@@H](Cc1ccc(O)cc1)C(=O)O [Tyrosine, L-tyrosine]
- fold higher catalytic efficiency compared to L-dopa (E. faecalis TyrDC [5]; TyrDC): 5 fold
- Vmax (E. faecalis TyrDC [5]): 6.363 ± 0.102 µM/s
- kcat (E. faecalis TyrDC [5]): 63.63 ± 1.02 s⁻¹

Molecule: C[C@@](Cc1ccc(O)c(O)c1)(NN)C(=O)O [carbidopa]
- solubility ([3]; E. faecalis cultures, plasma or biological fluid): 2000 µM (≈ 452 µg/mL)
- IC50 (H. sapiens AADC): 0.21 µM
- m-tyramine production in patients ([6]; carbidopa administration, previous findings): does not impact
- fold less active toward TyrDC relative to AADC (E. faecalis TyrDC [4]; E. faecalis TyrDC vs H. sapiens AADC): 200 fold
- preferential inhibition, AADC vs TyrDC (E. faecalis TyrDC [4]): preferentially inhibits human amino acid decarboxylase (AADC) over TyrDC
- IC50 (E. faecalis TyrDC [4]): 52 µM
- inhibition at 2000 µM (E. faecalis MMH594 cells; Enterococcus faecalis, MMH594CELLS, read-out: inhibition of L-dopa decarboxylation by E. faecalis cultures, at solubility limit of 2 mM): ~50%
- inhibition of L-dopa decarboxylation by E. faecalis cultures (E. faecalis MMH594 cells; at solubility limit of 2 mM): 50% inhibition at
- kinetics of L-dopa degradation in stool samples (human fecal microbiota; 2 mM carbidopa, 1 mM d3-phenyl-L-dopa, 72 hours): did not alter
- endpoint m-tyramine production in stool samples (human fecal microbiota; 2 mM carbidopa, Parkinson's patients and neurologically healthy controls): did not alter

Molecule: [Na+].[Na+].[O]=[W](=[O])([O-])[O-] [tungstate, Sodium tungstate]
- dopamine dehydroxylation by E. lenta A2 cell lysates (E. lenta A2 cell lysates): had no effect; also recorded: no dose-dependent effect
- dopamine dehydroxylation by E. lenta A2 cultures (E. lenta A2 [7]): inhibits
- growth of E. lenta A2 (E. lenta A2 [8]): without affecting growth; also recorded: no obvious dose-dependent growth defect

B1: E. faecalis TyrDC (Enterococcus faecalis EnGen0310 = MMH594) (protein)
chain: MKNEKLAKGEMNLNALFIGDKAENGQLYKDLLIDLVDEHLGWRQNYMPQDMPVISSQERTSESYEKTVNHMKDVLNEISSRMRTHSVPWHTAGRYWGHMNSETLMPSLLAYNFAMLWNGNNVAYESSPATSQMEEEVGHEFAHLMSYKNGWGHIVADGSLANLEGLWYARNIKSLPFAMKEVKPELVAGKSDWELLNMPTKEIMDLLESAEDEIDEIKAHSARSGKHLQAIGKWLVPQTKHYSWLKAADIIGIGLDQVIPVPVDHNYRMDINELEKIVRGLAEEQIPVLGVVGVVGSTEEGAVDSIDKIIALRDELMKDGIYYYVHVDAAYGGYGRAIFLDEDNNFIPYEDLQDVHEEYGVFKEKKEHISREVYDAYKAIELAESVTIDPHKMGYIPYSAGGIVIQDIRMRDVISYFATYVFEKGADIPALLGAYILEGSKAGATAASVWAAHHVLPLNVAGYGKLIGASIEGSHHFYNFLNDLTFKVGDKEIEVHTLTHPDFNMVDYVFKEKGNDDLVAMNKLNHDVYDYASYVKGNIYNNEFITSHTDFAIPDYGNSPLKFVNSLGFSDEEWNRAGKVTVLRAAVMTPYMNDKEEFDVYAPKIQAALQEKLEQIYDVK
- Km ([9]; best-fit ± standard error, n=3): 1475 ± 79.28 ^ μM
- Km [9]: 1.5 mM
- Km [10]: 314.9 ± 15.5 µM
